Results reported in the OligoGym collection.
HELM strings list units from the 5' end as sugar, base in round brackets, then linkage (d deoxyribose, r ribose, m 2'-O-methyl, p phosphodiester). Strings are as the collection lists them; they lack the last nucleoside at the 3' end of the tested compound. [moe] = 2'-O-(2-methoxyethyl) (MOE); [sp] = phosphorothioate linkage; [m5C] = 5-methylcytosine

molecular target: LRRK2; experiment: mouse, dose not given; conditions: ASO

Substance	3 h FOB score [score 0-7]
RNA1{[moe](A)[sp].[moe](T)p.[moe](A)[sp].[moe](G)[sp].[moe]([m5C])[sp].d(T)[sp].d(T)[sp].d([m5C])[sp].d([m5C])[sp].d(A)[sp].d([m5C])[sp].d([m5C])[sp].d(A)[sp].d([m5C])[sp].d(A)[sp].[moe](A)[sp].[moe](T)p.[moe](A)[sp].[moe](T)}$$$$ (last 3' nucleoside missing)	2
RNA1{[moe](G)[sp].[moe]([m5C])p.[moe](T)p.[moe](G)p.[moe](T)[sp].d(A)[sp].d(A)[sp].d(T)[sp].d(A)[sp].d([m5C])[sp].d(G)[sp].d(G)[sp].d([m5C])[sp].d(A)[sp].d(T)[sp].[moe]([m5C])p.[moe](T)p.[moe]([m5C])[sp].[moe](G)}$$$$ (last 3' nucleoside missing)	6
RNA1{[moe](A)[sp].[moe](T)p.[moe](G)[sp].[moe](A)[sp].[moe](G)[sp].d(T)[sp].d(G)[sp].d([m5C])[sp].d(A)[sp].d(T)[sp].d(G)[sp].d(G)[sp].d([m5C])[sp].d(A)[sp].d(T)[sp].[moe]([m5C])[sp].[moe](A)p.[moe](A)[sp].[moe](A)}$$$$ (last 3' nucleoside missing)	6
RNA1{[moe](G)[sp].[moe](T)p.[moe](G)p.[moe](A)p.[moe](A)[sp].d(G)[sp].d([m5C])[sp].d(A)[sp].d([m5C])[sp].d(T)[sp].d(G)[sp].d(A)[sp].d(A)[sp].d(T)[sp].d([m5C])[sp].[moe]([m5C])p.[moe](A)p.[moe](T)[sp].[moe](A)}$$$$ (last 3' nucleoside missing)	6
RNA1{[moe](T)[sp].[moe](T)p.[moe]([m5C])[sp].[moe](A)[sp].[moe](T)[sp].d(T)[sp].d([m5C])[sp].d(G)[sp].d(G)[sp].d(T)[sp].d(T)[sp].d(A)[sp].d(T)[sp].d(A)[sp].d(A)[sp].[moe](G)[sp].[moe](G)p.[moe]([m5C])[sp].[moe](A)}$$$$ (last 3' nucleoside missing)	6
RNA1{[moe](T)[sp].[moe](G)p.[moe]([m5C])p.[moe](T)p.[moe]([m5C])[sp].d(T)[sp].d([m5C])[sp].d(T)[sp].d(T)[sp].d(T)[sp].d([m5C])[sp].d(T)[sp].d([m5C])[sp].d(A)[sp].d([m5C])[sp].[moe](A)p.[moe](T)p.[moe](A)[sp].[moe]([m5C])}$$$$ (last 3' nucleoside missing)	0
RNA1{[moe](G)[sp].[moe]([m5C])p.[moe](T)p.[moe](G)p.[moe]([m5C])[sp].d(T)[sp].d([m5C])[sp].d(A)[sp].d(T)[sp].d(A)[sp].d(T)[sp].d([m5C])[sp].d(T)[sp].d(A)[sp].d(A)[sp].[moe](A)p.[moe](G)p.[moe](A)[sp].[moe]([m5C])}$$$$ (last 3' nucleoside missing)	0
RNA1{[moe](A)[sp].[moe](G)p.[moe]([m5C])p.[moe](A)p.[moe](A)[sp].d(T)[sp].d([m5C])[sp].d(A)[sp].d(T)[sp].d(T)[sp].d(G)[sp].d(G)[sp].d(T)[sp].d(A)[sp].d(G)[sp].[moe]([m5C])p.[moe](A)p.[moe](T)[sp].[moe](A)}$$$$ (last 3' nucleoside missing)	5
RNA1{[moe](A)[sp].[moe](T)p.[moe](G)p.[moe]([m5C])p.[moe](A)[sp].d(G)[sp].d(T)[sp].d(T)[sp].d(T)[sp].d([m5C])[sp].d(T)[sp].d([m5C])[sp].d(T)[sp].d(A)[sp].d([m5C])[sp].[moe](T)p.[moe]([m5C])p.[moe](T)[sp].[moe](A)}$$$$ (last 3' nucleoside missing)	0
RNA1{[moe](G)[sp].[moe]([m5C])p.[moe](A)[sp].[moe](A)[sp].[moe](G)[sp].d(T)[sp].d([m5C])[sp].d([m5C])[sp].d(A)[sp].d(A)[sp].d(A)[sp].d(T)[sp].d(G)[sp].d(T)[sp].d(G)[sp].[moe](T)[sp].[moe]([m5C])p.[moe](A)[sp].[moe](A)}$$$$ (last 3' nucleoside missing)	6
RNA1{[moe]([m5C])[sp].[moe]([m5C])p.[moe](T)[sp].[moe](G)[sp].[moe](A)[sp].d([m5C])[sp].d(A)[sp].d(T)[sp].d(T)[sp].d(G)[sp].d([m5C])[sp].d([m5C])[sp].d(A)[sp].d([m5C])[sp].d(T)[sp].[moe]([m5C])[sp].[moe](A)p.[moe](T)[sp].[moe](G)}$$$$ (last 3' nucleoside missing)	4
RNA1{[moe](A)[sp].[moe](T)p.[moe](G)p.[moe]([m5C])p.[moe](T)[sp].d(T)[sp].d(T)[sp].d([m5C])[sp].d(A)[sp].d(T)[sp].d(A)[sp].d(G)[sp].d([m5C])[sp].d(T)[sp].d(T)[sp].[moe]([m5C])p.[moe]([m5C])p.[moe](A)[sp].[moe]([m5C])}$$$$ (last 3' nucleoside missing)	0
RNA1{[moe]([m5C])[sp].[moe](T)p.[moe](T)[sp].[moe]([m5C])[sp].[moe](A)[sp].d(G)[sp].d(T)[sp].d(T)[sp].d([m5C])[sp].d([m5C])[sp].d(T)[sp].d(T)[sp].d([m5C])[sp].d(A)[sp].d(G)[sp].[moe](T)[sp].[moe]([m5C])p.[moe](T)[sp].[moe]([m5C])}$$$$ (last 3' nucleoside missing)	6
RNA1{[moe](A)[sp].[moe](T)p.[moe]([m5C])p.[moe]([m5C])p.[moe](A)[sp].d([m5C])[sp].d(A)[sp].d(T)[sp].d(T)[sp].d(T)[sp].d([m5C])[sp].d(T)[sp].d(G)[sp].d(A)[sp].d(A)[sp].[moe](T)p.[moe]([m5C])p.[moe]([m5C])[sp].[moe]([m5C])}$$$$ (last 3' nucleoside missing)	4
RNA1{[moe](T)[sp].[moe]([m5C])p.[moe](A)p.[moe](G)p.[moe](T)[sp].d(T)[sp].d([m5C])[sp].d([m5C])[sp].d(T)[sp].d(T)[sp].d([m5C])[sp].d(A)[sp].d(G)[sp].d(T)[sp].d([m5C])[sp].[moe](T)p.[moe]([m5C])p.[moe](A)[sp].[moe](A)}$$$$ (last 3' nucleoside missing)	4
RNA1{[moe]([m5C])[sp].[moe](T)p.[moe](G)[sp].[moe](T)[sp].[moe](T)[sp].d(A)[sp].d(T)[sp].d(T)[sp].d([m5C])[sp].d(T)[sp].d(G)[sp].d(A)[sp].d(T)[sp].d([m5C])[sp].d(A)[sp].[moe]([m5C])[sp].[moe](A)p.[moe]([m5C])[sp].[moe](G)}$$$$ (last 3' nucleoside missing)	5
RNA1{[moe]([m5C])[sp].[moe]([m5C])p.[moe](A)[sp].[moe]([m5C])[sp].[moe](A)[sp].d(A)[sp].d(A)[sp].d([m5C])[sp].d(T)[sp].d([m5C])[sp].d(A)[sp].d(T)[sp].d(G)[sp].d(G)[sp].d(A)[sp].[moe]([m5C])[sp].[moe](T)p.[moe](T)[sp].[moe]([m5C])}$$$$ (last 3' nucleoside missing)	7
RNA1{[moe](T)[sp].[moe](T)p.[moe](A)[sp].[moe](A)[sp].[moe]([m5C])[sp].d(A)[sp].d(A)[sp].d(T)[sp].d(A)[sp].d(T)[sp].d([m5C])[sp].d(A)[sp].d(T)[sp].d(A)[sp].d(T)[sp].[moe](A)[sp].[moe](A)p.[moe](T)[sp].[moe]([m5C])}$$$$ (last 3' nucleoside missing)	0
RNA1{[moe](T)[sp].[moe](G)p.[moe](A)[sp].[moe](G)[sp].[moe](T)[sp].d(G)[sp].d([m5C])[sp].d(A)[sp].d(T)[sp].d(G)[sp].d(G)[sp].d([m5C])[sp].d(A)[sp].d(T)[sp].d([m5C])[sp].[moe](A)[sp].[moe](A)p.[moe](A)[sp].[moe](A)}$$$$ (last 3' nucleoside missing)	5
RNA1{[moe](A)[sp].[moe](A)p.[moe](A)[sp].[moe](T)[sp].[moe](G)[sp].d(A)[sp].d(G)[sp].d(T)[sp].d(G)[sp].d([m5C])[sp].d(A)[sp].d(T)[sp].d(G)[sp].d(G)[sp].d([m5C])[sp].[moe](A)[sp].[moe](T)p.[moe]([m5C])[sp].[moe](A)}$$$$ (last 3' nucleoside missing)	4
RNA1{[moe]([m5C])[sp].[moe](A)p.[moe](T)[sp].[moe](T)[sp].[moe]([m5C])[sp].d(G)[sp].d(G)[sp].d(T)[sp].d(T)[sp].d(A)[sp].d(T)[sp].d(A)[sp].d(A)[sp].d(G)[sp].d(G)[sp].[moe]([m5C])[sp].[moe](A)p.[moe]([m5C])[sp].[moe](A)}$$$$ (last 3' nucleoside missing)	7
RNA1{[moe](G)[sp].[moe](T)p.[moe](G)[sp].[moe]([m5C])[sp].[moe](A)[sp].d(A)[sp].d(G)[sp].d(T)[sp].d([m5C])[sp].d([m5C])[sp].d(A)[sp].d(A)[sp].d(A)[sp].d(T)[sp].d(G)[sp].[moe](T)[sp].[moe](G)p.[moe](T)[sp].[moe]([m5C])}$$$$ (last 3' nucleoside missing)	4
RNA1{[moe](G)[sp].[moe]([m5C])p.[moe](T)p.[moe](T)p.[moe](T)[sp].d([m5C])[sp].d(A)[sp].d(T)[sp].d(A)[sp].d(G)[sp].d([m5C])[sp].d(T)[sp].d(T)[sp].d([m5C])[sp].d([m5C])[sp].[moe](A)p.[moe]([m5C])p.[moe]([m5C])[sp].[moe](A)}$$$$ (last 3' nucleoside missing)	0
RNA1{[moe](A)[sp].[moe](A)p.[moe](T)p.[moe](G)p.[moe]([m5C])[sp].d(T)[sp].d(T)[sp].d(T)[sp].d([m5C])[sp].d(A)[sp].d(T)[sp].d(A)[sp].d(G)[sp].d([m5C])[sp].d(T)[sp].[moe](T)p.[moe]([m5C])p.[moe]([m5C])[sp].[moe](A)}$$$$ (last 3' nucleoside missing)	1
RNA1{[moe](G)[sp].[moe]([m5C])p.[moe]([m5C])p.[moe]([m5C])p.[moe](A)[sp].d(G)[sp].d([m5C])[sp].d([m5C])[sp].d(A)[sp].d(A)[sp].d(A)[sp].d(T)[sp].d(G)[sp].d([m5C])[sp].d(T)[sp].[moe](T)p.[moe](G)p.[moe]([m5C])[sp].[moe](A)}$$$$ (last 3' nucleoside missing)	0
